The target of assay [1] is T1, recombinant human ASK1 protein (Homo sapiens, UniProt Q99683).
T1 sequence (Q99683 1-1374): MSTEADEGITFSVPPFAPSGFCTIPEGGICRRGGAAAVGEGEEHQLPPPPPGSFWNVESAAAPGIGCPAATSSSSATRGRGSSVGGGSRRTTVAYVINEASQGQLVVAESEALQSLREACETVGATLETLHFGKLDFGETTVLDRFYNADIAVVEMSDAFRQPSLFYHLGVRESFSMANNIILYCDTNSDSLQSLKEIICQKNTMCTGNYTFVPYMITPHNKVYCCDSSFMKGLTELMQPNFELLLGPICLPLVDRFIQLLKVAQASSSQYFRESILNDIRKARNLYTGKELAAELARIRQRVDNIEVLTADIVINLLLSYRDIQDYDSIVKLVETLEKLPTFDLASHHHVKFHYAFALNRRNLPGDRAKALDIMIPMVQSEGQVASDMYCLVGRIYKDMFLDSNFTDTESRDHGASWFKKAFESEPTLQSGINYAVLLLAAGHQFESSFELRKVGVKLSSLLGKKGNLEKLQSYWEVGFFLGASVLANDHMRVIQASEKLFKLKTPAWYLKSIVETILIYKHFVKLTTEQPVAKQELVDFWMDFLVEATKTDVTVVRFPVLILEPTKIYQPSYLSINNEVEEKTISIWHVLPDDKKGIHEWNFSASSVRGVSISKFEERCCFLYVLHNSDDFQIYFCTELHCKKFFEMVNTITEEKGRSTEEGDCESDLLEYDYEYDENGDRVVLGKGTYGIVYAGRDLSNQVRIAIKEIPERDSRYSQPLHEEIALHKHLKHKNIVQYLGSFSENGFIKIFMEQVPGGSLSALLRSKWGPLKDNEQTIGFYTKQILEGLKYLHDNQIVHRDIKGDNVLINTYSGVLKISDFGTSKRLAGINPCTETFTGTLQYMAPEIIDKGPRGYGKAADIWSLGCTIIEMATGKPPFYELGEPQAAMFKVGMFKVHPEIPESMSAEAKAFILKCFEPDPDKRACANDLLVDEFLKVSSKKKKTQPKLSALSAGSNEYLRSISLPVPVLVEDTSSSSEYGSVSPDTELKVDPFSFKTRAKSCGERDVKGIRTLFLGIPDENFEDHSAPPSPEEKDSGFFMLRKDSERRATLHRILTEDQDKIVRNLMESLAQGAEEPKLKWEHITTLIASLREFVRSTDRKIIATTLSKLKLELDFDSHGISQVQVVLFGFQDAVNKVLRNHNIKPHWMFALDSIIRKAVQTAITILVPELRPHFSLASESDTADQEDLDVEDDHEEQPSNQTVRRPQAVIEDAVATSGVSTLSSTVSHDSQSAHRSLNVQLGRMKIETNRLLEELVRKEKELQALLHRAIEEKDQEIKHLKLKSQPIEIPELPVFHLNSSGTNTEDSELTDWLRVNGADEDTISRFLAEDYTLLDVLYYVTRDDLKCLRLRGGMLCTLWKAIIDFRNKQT
Description: Evaluation of ASK1 inhibition activity ([gamma-33P]-ATP, scintillation counting). Conditions: for remaining activity at 0.5 µM: activity of group without compound set at 100%, read-out: Remaining kinase activity (%) at 0.5 uM. The format is biochemical. Here is the method: The recombinant human ASK1 protein was initiated by adding a mixture of Mg/ATP to the reaction solution (8 mM MOPS PH 7.0, 0.2 mM EDTA, 0.33 mg/mL myelin basic protein, 10 mM Mg Acetate and [gamma-33P]-ATP), and the reaction was terminated by adding 0.5% phosphoric acid after 40 min at room temperature.

Assay [2] relates to α-Syn transgenic Parkinson's disease mouse model. Kind of assay: α-Syn transgenic Parkinson's disease mouse model: neurological score (modified Irwin test). Conditions: Example 3 2/10/50 mg/kg, Example 2 2 mg/kg PO QD 5 months; vs TG+carrier (G2). Type of assay: in vivo. On the procedure: The test drug was administered once daily (QD) via oral administration (PO) with a solution of 5 ml/kg for 5 months from 4 months to 9 months of age. Motor behavior tests (beam test) and neurological scores (modified Irwin test) were performed at 4 months (before administration), 7 months, and 9 months. After the final behavioral test, tissue samples were taken. Weight was measured on the same day once a week from 4 months of age until the end of the study.
Scores were recorded by direct observation of mice in cages for neurological behavioral disorders, except for startle reflex, tail pinch, and righting reflex. To test the startle reflex, a small remote control was used to make loud noises and check behaviors such as jumping, stopping, and blinking quickly. For the […] reflex, each mouse was removed from the cage and placed with its back facing the floor so that the mouse could correct its posture on its own. The tail pinch reflex was tested by gently squeezing the tip of the tail with forceps.
A score of 0 was given if there were normal or no abnormal features such as motor activity, 1 point if mild abnormalities were observed, and 2 to 3 points were given if serious abnormalities were observed. The scores for all observed behaviors for each mouse were added, and the average of the added scores for each group was calculated.

The next assay has as its system SH-SY5Y cells. Kind of assay: Cytoprotective effects in MPP+-induced human neurons (CCK-8). Conditions: MPP+ 5 mM induced cytotoxicity, cell viability by CCK-8. The format is cell-based. On the procedure:
SH-SY5Y cells were purchased from ATCC and cultured at 37° C. and 5% CO2 in RPMI medium containing 10% FBS and 1% penicillin and streptomycin. MPP+ was purchased from Sigma Aldrich and treated with 5 mM to induce cytotoxicity.

The structures appear in SMILES notation.

The term IC50 denotes the concentration that gives 50% inhibition. In general, remaining activity refers to what remains of the control signal, in per cent. The EC50 is the concentration that produces a half-maximal response. For the compound `Cc1cc(F)c(C(=O)Nc2cccc(-n3nnc4c3CCC4)n2)cc1-n1cnc(C2CC2)c1` [Example 2, 5-(4-cyclopropyl-1H-imidazole-1-yl)-N-(6-(5,6-dihydrocyclopenta[d][1,2,3]triazole-1 (4H)-yl)pyridine-2-yl)-2-fluoro-4-methylbenzamide], in assay [1], the IC50 was determined as 0.037 µM and the remaining activity at 0.5 µM stood at 2%. Moreover, the neurological score entry in assay [2] is recorded as “significantly reduced the neurological score of TG mice compared to G2”. The compound further had an EC50 in the assay with SH-SY5Y cells of 64 nM.

With `Cc1cc(F)c(C(=O)Nc2cccc(-n3nnc4c3CCCC4)n2)cc1-n1cnc(C2CC2)c1` [Example 3, 5-(4-cyclopropyl-1H-imidazole-1-yl)-2-fluoro-4-methyl-N-(6-(4,5,6,7-tetrahydro-1H-benzo[d][1,2,3]triazole-1-yl)pyridine-2-yl)benzamide], in assay [1], the IC50 stood at 0.073 µM and the remaining activity at 0.5 µM came to 7%. The neurological score result in assay [2] is listed as “significantly reduced the neurological score of TG mice compared to G2”. The EC50 in the assay with SH-SY5Y cells worked out at 23 nM.
